Patent EP1310250A1, “Use of the compound 2-methoxyphenyl-1-methyl-5P-methylbenzoyl-pyrrol-2-acetamido acetate for the production of an antiinflammatory drug with prevention of gastric hypersecretion and renal impairment” (MEDOSAN Ricerca S.r.l., priority 1997, dated 1999)

Experiments:
osteoarthritis = assay: Clinical trials: antiphlogistic activity in osteoarthritis; assay type: in vivo, man; set-up: key to Antiphlogistic activity evaluation: excellent ^++++; good ^+++; poor ^++
From the text: In this degenerative disease amtolmetin guacyl was compared with diclofenac, diflunisal, flurbiprofen, ibuprofen, ketoprofen, naproxen and tolmetin.

[1] = tested on: carrageenin-induced paw oedema; assay: Determination of ID50, carrageenin-induced paw oedema; assay type: in vivo, rat; conditions: five times the oral ID50 for oedema inhibition, 2 h after carrageenin
Procedure: ID50, relative to the products under examination (considered in table 1), has been evaluated using the anti-inflammatory response to carrageenin-induced paw oedema (according to Wong et al, J Pharmacol Exp, 1973:1855; pages 127-138). The products, suspended in 1% CMC, were administered orally in a total volume of 5 ml/rat. 1 h later, 0.1 ml of 1% carrageenin sterile solution was injected into the hind subplantar aponeurosis. Volume of the paw was measured immediately prior to injection of the phlogogen and 2 h thereafter, by means of a plethysmograph. The percentage of inhibition of oedema was calculated as follows: 1 - ΔV treated/ΔV control x 100 [formula] where ΔV = final V - initial V.

[2] = tested on: CGRP (calcitonin gene related peptide); assay: Peptone-stimulated gastric acid secretion after treatment with CGRP8-37; assay type: in vivo, rat; conditions: peptone-stimulated gastric acid secretion (fig. 14)
rat gastric mucosa = conditions: male, Wistar, in vivo, po, 4 days
Procedure: The animals entered in the trial, randomized and divided into groups of 6 rats each, were fasted for 16 h prior to treatment, with access to water ad libitum. They were re-fed 1 h after drug administration. The compound 2-methoxyphenyl-1-methyl-5p-methylbenzoyl-pyrrol-2-acetamido acetate and the other reference NSAIDs, suspended in 1% carboxymethylcellulose (CMC) solution, were orally administered by gastric gavage in a volume of 6ml/kg for four consecutive days. Controls received the vehicle in the same way as the treated animals. 4 h after the last administration the animals were killed by ether overdose; the stomachs were removed, rinsed with 10 ml of saline and immersed in 1% formalin. They were later opened along the greater curvature and the mucosa examined for lesions.
The seriousness of the lesion was quantified according to a scale graduated from 1 to 3 according to the size of the lesions: 1= ulcer < 1mm; 2= ulcer 1-2mm; 3= ulcer > 2mm. The total sum was divided by 10 to obtain the "erosion index". The gastric lesions were evaluated by two independent investigators under blind conditions according to Main & Whittle method (BJ Pharmac 1975:53; p. 217-224).
Since the average daily dose in man (for the anti-inflammatory activity) is 600 mg, the comparative efficacious dose in the rat is in the ratio of 12:1. More precisely, comparative evaluation with the other NSAID compounds was calculated as follows: 600 mg/die: 50 mg/kg = daily dose of reference NSAID in man: X [formula] where X represents the daily dose of the reference NSAID in rat. This criterion keeps into account the "real" activity ratio in man. In this work the "ratio to rat dosage" has also been included which keeps into account ratios homogeneous to the same animal species. To evaluate the "ratio to rat dosage" the ID50 has been determined using the carrageenin-induced oedema as inflammatory test.
In order to exacerbate possible side effects on the stomach the dosage of amtolmetin guacyl was quadruplicated.

gastric acid secretion = assay: Antisecretory activity in vivo in rat, histamine-induced acid secretion
Procedure: The methods used were those described by G Coruzzi, M. Adami, C. Pozzoli, E. Poli, G. Bertaccini (Pharmacology 1994;48: pages 69-76) and M. Leitold, W. Fleissig and A. Merk (Arzneim-Forsch/Drug Res. 34(I), Nr. 4, 1984).
The animals were treated in oral administration with amtolmetin guacyl 50 or 100 mg/kg, 1 h before the beginning of the perfusion with histamine. The controls received only the vehicle (CMC 1%).
After anaesthesia with urethan (1.25 g/kg i.p.), the oesophagus was ligated close to the stomach. Two cannulas of polyethylene are then inserted: one was inserted in the forestomach, the second one was inserted directly into the pyloric sphincter. The stomach was flushed with saline at 37°C (1 ml/min) and the flushed liquid, collected every 15 minutes, titred at ph 7 with NaOH 10^-2 M. The acid secretion was induced by an intravenous infusion (0.1 ml/min) of histamine (30 µmol/kg/h).
The acidity is expressed as µEqH^+/15 min.

human lymphocites = assay: Chromosome aberrations in lymphocytes cultivated in vitro; assay type: cell-based
adverse events = assay: Clinical trials: tolerability, adverse events and suspensions of treatment; set-up: species or system man; conditions: in vivo
From the text: Interest in the amtolmetin guacyl molecule arose following a thorough analysis of the results of 31 comparative and 6 non-comparative clinical trials involving 1596 patients. […] Turthermore the physician, being aware of administering an NSAID, was expecting adverse events and could not be expected to be an impartial observer. The few cases of gastro-intestinal phenomena reported with amtolmetin guacyl were transitory and in no event accompanied by the presence of occult blood in the stools. Moreover, even in the presence of a reported side-effect it was almost never necessary to suspend treatment (0.4% of suspensions).
Following are summarized the results obtained on a total of 1596 patients in 37 clinical trials.
Confirmation of the above described advantages is the very low incidence of treatment suspension for adverse events found in clinics (Table 17), which is not the case for most of NSAIDs known in the art (Table 18).

[3] = tested on: post-traumatic arthralgia; assay: Clinical trials: analgesic properties in post-traumatic arthralgia; assay type: in vivo, man; conditions: Amtolmetin guacyl 600mgx2-daily, Diclofenac 50mgx2-daily, 15 patients each
From the text: The same can be said in the treatment of post-traumatic arthralgia.

gastric lesions = assay: Clinics with before/after endoscopies; assay type: in vivo, man; conditions: especially when administered on an empty stomach
rheumatoid arthritis = assay: Clinical trials: antiphlogistic activity in rheumatoid arthritis; assay type: in vivo, man; set-up: key to Antiphlogistic activity evaluation: excellent ^++++; good ^+++; poor ^++
From the text: Amtolmetin guacyl was compared with ibuprofen, indomethacin, piroxicam and tolmetin.

For `COc1ccccc1OC(=O)CNC(=O)Cc1ccc(C(=O)c2ccc(C)cc2)n1C` [amtolmetin guacyl, 2-methoxyphenyl-1-methyl-5p-methylbenzoylpyrrol-2-acetamido acetate], the “Evaluation of antiphlogistic activity” value (osteoarthritis; 550 patients, mean 80 days, versus Diclofenac, Diflunisal, Flurbiprofen, Ibuprofen, Ketoprofen, Naproxen, Tolmetin) was “Amtolmetin guacyl was more rapid and more active in a statistically significant manner in osteoarthritis compared to the reference NSAIDs”, the Antiphlogistic activity evaluation (osteoarthritis; Osteoarthritis) was “^++++” and the “Ratio to rat dosage (mg/kg) (ID50 mg/kg x5)” value [1] was 100 mg/kg. The “effect of the CGRP antagonist CGRP8-37 on the activity on gastric secretion” value [2] was “blockage of the amtolmetin guacyl - related activity on gastric secretion”, the Gastrolesive index (rat gastric mucosa) was 1.0 and the acidity (gastric acid secretion; 50 mg/kg oral 1 h before histamine perfusion, time 0 min) was 4 µEqH^+/15'. The acidity (gastric acid secretion; 50 mg/kg oral 1 h before histamine perfusion, time 15 min) was 4 µEqH^+/15', the acidity (gastric acid secretion; 50 mg/kg oral 1 h before histamine perfusion, time 30 min) was 5 µEqH^+/15' and the acidity (gastric acid secretion; 50 mg/kg oral 1 h before histamine perfusion, time 45 min) was 11 µEqH^+/15'. The acidity (gastric acid secretion; 50 mg/kg oral 1 h before histamine perfusion, time 60 min) was 15 µEqH^+/15', the acidity (gastric acid secretion; 50 mg/kg oral 1 h before histamine perfusion, time 75 min) was 17 µEqH^+/15' and the acidity (gastric acid secretion; 50 mg/kg oral 1 h before histamine perfusion, time 90 min) was 19 µEqH^+/15'. It also gave an acidity (gastric acid secretion; 50 mg/kg oral 1 h before histamine perfusion, time 105 min) of 18.5 µEqH^+/15', an acidity (gastric acid secretion; 50 mg/kg oral 1 h before histamine perfusion, time 120 min) of 22 µEqH^+/15' and an acidity (gastric acid secretion; 50 mg/kg oral 1 h before histamine perfusion, time 135 min) of 20 µEqH^+/15'. It also gave an acidity (gastric acid secretion; 100 mg/kg oral 1 h before histamine perfusion, time 0 min) of 8 µEqH^+/15', an acidity (gastric acid secretion; 100 mg/kg oral 1 h before histamine perfusion, time 15 min) of 7 µEqH^+/15' and an acidity (gastric acid secretion; 100 mg/kg oral 1 h before histamine perfusion, time 30 min) of 9 µEqH^+/15'. It also gave an acidity (gastric acid secretion; 100 mg/kg oral 1 h before histamine perfusion, time 45 min) of 11 µEqH^+/15', an acidity (gastric acid secretion; 100 mg/kg oral 1 h before histamine perfusion, time 60 min) of 12 µEqH^+/15' and an acidity (gastric acid secretion; 100 mg/kg oral 1 h before histamine perfusion, time 75 min) of 13 µEqH^+/15'. It also gave an acidity (gastric acid secretion; 100 mg/kg oral 1 h before histamine perfusion, time 90 min) of 14 µEqH^+/15', an acidity (gastric acid secretion; 100 mg/kg oral 1 h before histamine perfusion, time 105 min) of 15 µEqH^+/15' and an acidity (gastric acid secretion; 100 mg/kg oral 1 h before histamine perfusion, time 120 min) of 13 µEqH^+/15'. The acidity (gastric acid secretion; 100 mg/kg oral 1 h before histamine perfusion, time 135 min) was 14 µEqH^+/15', the chromosomic aberrations (human lymphocites) was “absence of amtolmetin guacyl-related damage” and the Treatment suspended % (adverse events; human) was 0,4%. The suspensions of treatment (adverse events; human) was 0.4%, the “variations of the routine biological parameters” value (adverse events) was “no significant variations of the routine biological parameters were observed” and the “Duration” value [3] was 360 min. The “Latency” value [3] was 20 min, the “Max. time effect” value [3] was 60 min and the “induction of gastric lesions” value (gastric lesions) was “not to induce gastric lesions”. The “Evaluation of antiphlogistic activity” value (rheumatoid arthritis; 150 patients, 30 days, versus Ibuprofen, Indomethacin, Piroxicam, Tolmetin) was “Amtolmetin guacyl demonstrated statistical significant activity more rapid and more marked when compared to the reference NSAIDs in rheumatoid arthritis” and the Antiphlogistic activity evaluation (rheumatoid arthritis; Rheumatoid arthritis) was “^++++”.
